From publication PMC5961436, “PKA and PKC Modulators Affect Ion Channel Function and Internalization of Recombinant Alpha1 and Alpha1-Beta Glycine Receptors” (Frontiers in Molecular Neuroscience, 2018)
Where two headings read alike, the source gives them in different places.

Experiments:
human homomeric α1 GlyRs = assay: Whole-cell patch-clamp of glycine induced currents, modulators in the intracellular buffer, HEK293 cells expressing GlyR α1; type: cell-based
Experimental: (§1) HEK293 cells were grown in 10 cm tissue culture Petri dishes in Eagle minimal essential medium (Sigma-Aldrich Chemie GmbH, Munich, Germany) supplemented with 10% FBS (Invitrogen, Karlsruhe, Germany) and penicillin/streptomycin (Sigma-Aldrich Chemie GmbH, Munich, Germany) at 5% CO2 and 37°C in a water saturated atmosphere. For electrophysiological experiments, cells were plated on poly-L lysine treated glass coverslips in 6 cm dishes. Transfection was performed 1 day after cell passage using Gen-Carrier (Epoch Lifesciences, Sugarland, TX, USA): 1.3 μg of receptor DNA, 1.3 μg of green fluorescent protein DNA, and 2.6 μl GenCarrier were used, following the manufacturer’s instructions. Measurements were performed 2–4 days after transfection. HEK293 cells used for protein expression and internalization analysis were transfected using a modified calcium phosphate precipitation method. In brief, a mixture of plasmid DNA, CaCl2 (2.5M), 0.1× TE buffer and 2× HBS (50 mM HEPES, 12 mM glucose, 10 mM KCl, 280 mM NaCl, 1.5 mM Na2HPO4) was applied onto the cells for 6 h. A GlyR α1 to GlyR β ratio of 1:2 was used for co-expression. Transfection medium was replaced by fresh medium after 6 h. Immunocytochemical stainings were always done 24 h after transfection, biotinylation experiments were performed 48 h after transfection.
(§2) using a nonlinear algorithm in Microcal Origin. Here, Iglycine is the current amplitude at a given glycine concentration, Isat is the maximum current amplitude at saturating concentrations of glycine, EC50 is the glycine concentration at half-maximal current responses, and nHill is the Hill coefficient. Currents from each individual cell were normalized to the maximum response at saturating glycine concentrations. Significance of differences between EC50 values were determined using one-way ANOVA with p ≤ 0.05 (*) and p ≤ 0.01 (**) taken as significant. In all experiments, EC50 values were determined for each individual cell from a non-linear fit of dose response data to the logistic equation. An unweighted average ± standard error (SEM) was calculated from all individual EC50 values, without considering the fitting errors.
(§3) For time course analysis, a series of EC50 data was recorded from each cell. The first concentration-response curve, defined as t = 0, was recorded immediately after establishing the whole-cell configuration and positioning the cell in front of the delivery tube. […] Further recordings were made at t = 3 min, t = 6 min and t = 10 min (not attained with all cells). Time-independent recordings were taken at t = 0, and values of EC50 and Imax in the presence of PKA- or PKC modulators were normalized to control (no modulator). For time course analysis, responses were normalized to the control value at t = 0. Patch-clamp experiments were carried out on different dates and using different batches of HEK 293 cells. Since control EC50 values varied between different days of plating and between batches of cells, measurements with kinase modulators were always compared to control measurements recorded on the same day and from the same batch of cells.

GlyR α1-β = assay: Receptor internalization assay (pre-labeled GlyRs, confocal microscopy) in HEK293 cells; type: cell-based, human; conditions: 200 nM modulator, 15 min, 37°C; untreated cells 1.7 ± 0.4 dots/cell; ± SEM
Experimental: To stain internalized GlyRs, GlyR α1 was cotransfected with GlyR β into HEK293 cells grown on glass cover slips. Internalization experiments were performed 24 h post-transfection. Live cells co-expressing GlyR α1-β receptors were labeled with the α1-specific monoclonal antibody Mab2b (1:500 in Earle’s minimal essential medium for 1 h at 4°C). Earle’s minimal essential medium was supplemented with 10% fetal calf serum, […] GlutaMAX, 100 mM sodium pyruvate, and 50 U/ml penicillin/streptomycin (Thermo Fisher Scientific, Waltham, MA, USA). Mab2b was purchased from Synaptic Systems, Göttingen, Germany. Following three washing steps in phosphate-buffered saline (PBS, pH 7.4), cells were incubated with goat-anti-mouse-Cy3 secondary antibody again for 1 h at 4°C (dilution of secondary antibody 1:500 in Earle’s minimal essential medium, Dianova, Hamburg Germany). Glass cover slips with pre-labeled GlyRs were transferred into a 24-well plate containing 500 μl of Earle’s minimal essential medium with PKA and PKC modulators (200 nM final concentration each; Forskolin, H-89, PMA, Staurosporine aglycon, all from Sigma-Aldrich Chemie GmbH, Munich, Germany). Cells were incubated with modulators for 15 min to allow receptor internalization. Time point zero (0 min) was taken as a negative internalization control to ensure health of HEK293 cells (pre-labeling of GlyRs at 4°C inhibits internalization). Following incubation with PKA and PKC modulators, cells were stained with a second secondary antibody (donkey-anti-goat-Dyelight488, 1:250 in Earle’s minimal essential medium, Dianova, Hamburg, Germany) for 30 min at 4°C to label receptor retained at the cellular surface. Cells were fixed with 4% paraformaldehyde, 4% sucrose in PBS for 15 min at 4°C, washed three times in PBS and stained with 4′,6-diamidino-2-phenylindole (DAPI, Thermo Fisher Scientific, Waltham, MA, USA) to label the cell nuclei for 5 min at 4°C (1:5000 in PBS). Coverslips were washed again with PBS and Aqua Dest and mounted on glass slides using mowiol.
The images were obtained using an inverted Olympus IX81 microscope equipped with an Olympus FV1000 confocal laser scanning system, a FVD10 SPD spectral detector and diode lasers of 495 nm (Alexa488) and 550 nm (Cy3; Olympus, Tokyo, Japan), and an Olympus UPLSAPO 60× (oil, numerical aperture: 1.35) objective. Adobe Photoshop (Adobe, San Jose, CA, USA) or ImageJ (1.51)/Fiji^1 were used for image analysis.

[1] = test system: GABA- and Gly-gated currents; design: method as in Machu et al., 2006; conditions: oocytes; ref Machu et al., 2006; cited from earlier work
GlyR = test system: GlyR; design: method as in Vaello et al., 1994; conditions: ref Vaello et al., 1994; cited from earlier work
[2] = test system: GABA- and Gly-gated currents; design: method as in Machu et al., 2006; conditions: HEK293 cells, ref Machu et al., 2006, cited from earlier work
[3] = test system: human heteromeric α1-β GlyRs; assay: Whole-cell patch-clamp of glycine induced currents, modulators in the intracellular buffer, HEK293 cells expressing GlyR α1-β; type: cell-based; conditions: 0.5 μM modulator in intracellular buffer
Experimental: as §1, §2, §3

glycine currents = test system: glycine currents; design: method as in Tapia et al., 1997; conditions: ref Tapia et al., 1997; cited from earlier work
GlyRα1 = test system: GlyRα1; design: method as in Huang et al., 2007; conditions: ref Huang et al., 2007; cited from earlier work
[4] = GlyR α1, 0.5 μM modulator in intracellular buffer
[5] = GlyR α1, 0.5 μM modulator in intracellular buffer, mean ± SEM

CCCCCCCCCCCCCC(=O)O[C@@H]1[C@@H](C)[C@@]2(O)[C@@H](C=C(CO)C[C@]3(O)C(=O)C(C)=C[C@@H]23)[C@@H]2C(C)(C)[C@]12OC(C)=O [PMA, phorbol-12-myristate-13-acetate]
change of Imax at t = 10 min normalized to t = 0 (human homomeric α1 GlyRs; 0.25 μM intracellular modulator, one-way ANOVA): significantly reduced
effect on EC50 (human homomeric α1 GlyRs; 0.25 μM modulator, t = 0): increased EC50
desensitization of glycine induced currents (human homomeric α1 GlyRs; [4]): no effect on receptor desensitization
effect on EC50 compared to control (human homomeric α1 GlyRs; [4]): increased
Fraction of desensitizing cells (human homomeric α1 GlyRs; [5]): 0.05 ± 0.05
Imax (human homomeric α1 GlyRs; [5]): 2.30 ± 0.74 nA
internalized receptor (GlyR α1-β): 3.9 ± 0.7 dots/cell
peak amplitude of GABA- and Gly-gated currents [1]: large, reproducible decrease
effect on glycinergic currents (GlyR): decreased glycinergic currents
modulation of receptors ([2]; 35°C): decreased the function
modulation of receptors ([2]; room temperature): ineffective
desensitization of glycine induced currents [3]: no effect on receptor desensitization
effect on EC50 compared to control [3]: not statistically significant
Fraction of desensitizing cells ([3]; mean ± SEM): 0.27 ± 0.08
Imax ([3]; mean ± SEM): 1.26 ± 0.27 nA
effect on glycine currents (glycine currents): reduce the amplitude of glycine currents
start of receptor internalization (GlyRα1): ≤ 15 min
